In the supplement of paper PMC10307832:

Key:
Experiment in all cases: relative viability (nuclei count vs DMSO), 5 days (fraction); higher = more cells survive
Ibrutinib + OSI-027 = compound: C=CC(=O)N1CCC[C@@H](n2nc(-c3ccc(Oc4ccccc4)cc3)c3c(N)ncnc32)C1 [Ibrutinib] + COc1cccc2cc(-c3nc([C@H]4CC[C@H](C(=O)O)CC4)n4ncnc(N)c34)[nH]c12 [OSI-027] (partner 0.5 µM)
Method in brief: (§1)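 One day after seeding in 1536-well plates, lung cancer cell lines were dosed by pin tool. Dosing was either single-drug or a fixed anchor-drug dose plus five library-drug doses (not always all listed) in √10 steps. After 5 days, nuclei were stained in one fix-and-stain step and counted on 4× images, and relative viability is the nuclei count of treated wells over that of vehicle wells, given as the median of duplicate plates.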

BMX-IN-1 + OSI-027 = compound: C=CC(=O)Nc1cc(-n2c(=O)ccc3cnc4ccc(-c5ccc(NS(C)(=O)=O)cc5)cc4c32)ccc1C [BMX-IN-1] + COc1cccc2cc(-c3nc([C@H]4CC[C@H](C(=O)O)CC4)n4ncnc(N)c34)[nH]c12 [OSI-027] (partner 0.5 µM)
Method in brief: as §1

Ibrutinib + Vorinostat = compound: C=CC(=O)N1CCC[C@@H](n2nc(-c3ccc(Oc4ccccc4)cc3)c3c(N)ncnc32)C1 [Ibrutinib] + O=C(CCCCCCC(=O)Nc1ccccc1)NO [Vorinostat] (partner 1 µM)
Method in brief: as §1

PAC-1 + Alpelisib = compound: C=CCc1cccc(/C=N/NC(=O)CN2CCN(Cc3ccccc3)CC2)c1O [PAC-1] + Cc1nc(NC(=O)N2CCC[C@H]2C(N)=O)sc1-c1ccnc(C(C)(C)C(F)(F)F)c1 [Alpelisib] (partner 2 µM)
Method in brief: as §1

Cell Line	relative viability (Ibrutinib + OSI-027; first compound 0.005 µM)	relative viability (Ibrutinib + OSI-027; first compound 0.01581 µM)	relative viability (Ibrutinib + OSI-027; first compound 0.05 µM)	relative viability (Ibrutinib + OSI-027; first compound 0.1581 µM)	relative viability (Ibrutinib + OSI-027; first compound 0.5 µM)	relative viability (BMX-IN-1 + OSI-027; first compound 0.02 µM)	relative viability (BMX-IN-1 + OSI-027; first compound 0.2 µM)	relative viability (BMX-IN-1 + OSI-027; first compound 0.6325 µM)	relative viability (BMX-IN-1 + OSI-027; first compound 2 µM)	relative viability (Ibrutinib + Vorinostat; first compound 0.005 µM)	relative viability (Ibrutinib + Vorinostat; first compound 0.01581 µM)	relative viability (Ibrutinib + Vorinostat; first compound 0.05 µM)	relative viability (Ibrutinib + Vorinostat; first compound 0.1581 µM)	relative viability (Ibrutinib + Vorinostat; first compound 0.5 µM)	relative viability (PAC-1 + Alpelisib; first compound 0.02 µM)	relative viability (PAC-1 + Alpelisib; first compound 0.06325 µM)	relative viability (PAC-1 + Alpelisib; first compound 0.2 µM)	relative viability (PAC-1 + Alpelisib; first compound 2 µM)
NCI-H1623	0.42	0.403	0.32	0.42	0.313	0.42	0.456	0.528	0.409	–	–	–	–	–	–	–	–	–
HOP-62	0.689	0.733	0.832	0.982	0.924	1.01	1.16	1.03	0.817	0.529	0.701	0.557	0.778	0.71	1.07	0.875	0.798	0.85
NCI-H727	0.506	0.591	0.674	–	0.577	0.846	0.597	0.648	0.612	1.11	1.18	1.26	0.808	1.12	0.646	0.648	0.527	0.561
ChaGo-K-1	0.582	0.521	0.482	0.414	0.63	0.731	0.635	0.624	0.786	0.752	0.766	0.688	0.708	0.75	–	–	–	–
BEN	–	0.3	0.288	–	0.298	0.319	0.282	0.294	0.31	0.513	0.609	0.599	0.538	0.501	1.04	1.1	1.09	0.965
NCI-H596	–	0.777	0.625	0.675	0.526	0.924	0.856	0.781	0.81	0.468	0.628	0.501	0.57	0.572	0.428	0.561	0.472	0.446
LU99A	0.245	0.254	0.323	0.32	0.288	0.321	0.289	0.329	0.298	0.369	0.512	0.486	0.564	0.439	0.528	0.508	0.495	0.472
NCI-H460	0.731	0.53	0.626	0.566	0.823	1.46	1.16	1.16	0.691	0.855	0.667	0.695	0.794	0.781	0.354	0.534	0.433	0.327
NCI-H1648	0.243	0.288	0.278	0.256	0.306	0.223	0.249	0.265	0.272	0.423	0.441	0.402	0.31	0.343	–	–	–	–
HCC-44	0.44	0.517	0.585	–	0.669	0.617	0.515	0.56	0.474	1.21	–	1.2	1.2	1.15	0.782	0.875	0.774	0.855
NCI-H647	–	0.542	0.671	0.841	0.812	0.722	0.642	0.736	0.571	0.569	0.472	0.695	0.645	0.67	0.995	1.08	1.14	0.709
Calu-6	–	–	–	–	–	–	–	–	–	–	–	–	–	–	0.929	1.03	0.931	1.13
201T	0.758	0.665	0.882	0.608	0.762	0.805	0.985	0.798	0.824	0.94	0.982	0.969	0.883	0.889	0.935	1	1.03	1.01
CAL-12T	0.369	0.579	0.601	0.569	0.562	0.712	0.665	0.659	0.679	0.617	0.623	0.464	0.841	0.621	1.13	1.18	1.16	1.37
HCC-78	0.309	0.362	0.36	0.355	0.308	0.336	0.372	0.371	0.376	–	0.403	0.405	0.446	0.388	0.308	0.373	0.368	0.303
LK-2	0.151	0.203	0.203	0.174	0.212	0.219	0.188	0.187	0.242	0.236	0.234	0.266	0.293	0.177	1.08	1.22	1.2	0.971
NCI-H522	0.656	0.693	0.692	0.597	0.648	0.673	0.74	0.696	0.732	0.848	0.764	–	0.808	0.815	–	–	–	–
NCI-H322M	0.482	0.564	0.513	0.507	0.488	0.581	0.534	0.618	0.502	0.74	0.915	0.79	0.571	0.802	0.7	0.857	0.794	0.911
COR-L 105	0.393	0.467	0.389	0.609	0.31	0.817	0.668	0.814	0.586	0.709	0.659	0.526	0.833	0.388	0.736	1.22	1.04	1.24

Cell Line	relative viability (Ibrutinib + OSI-027; first compound 0.005 µM)	relative viability (Ibrutinib + OSI-027; first compound 0.01581 µM)	relative viability (Ibrutinib + OSI-027; first compound 0.05 µM)	relative viability (Ibrutinib + OSI-027; first compound 0.1581 µM)	relative viability (Ibrutinib + OSI-027; first compound 0.5 µM)	relative viability (BMX-IN-1 + OSI-027; first compound 0.02 µM)	relative viability (BMX-IN-1 + OSI-027; first compound 0.2 µM)	relative viability (BMX-IN-1 + OSI-027; first compound 0.6325 µM)	relative viability (BMX-IN-1 + OSI-027; first compound 2 µM)	relative viability (Ibrutinib + Vorinostat; first compound 0.005 µM)	relative viability (Ibrutinib + Vorinostat; first compound 0.01581 µM)	relative viability (Ibrutinib + Vorinostat; first compound 0.05 µM)	relative viability (Ibrutinib + Vorinostat; first compound 0.1581 µM)	relative viability (Ibrutinib + Vorinostat; first compound 0.5 µM)	relative viability (PAC-1 + Alpelisib; first compound 0.02 µM)	relative viability (PAC-1 + Alpelisib; first compound 0.06325 µM)	relative viability (PAC-1 + Alpelisib; first compound 0.2 µM)	relative viability (PAC-1 + Alpelisib; first compound 2 µM)
LOU-NH91	0.586	0.617	0.555	0.659	0.448	0.717	–	0.772	0.679	0.818	0.782	0.749	0.88	0.684	0.706	0.739	0.692	0.738
PC-3 [JPC-3]	0.635	0.7	0.619	0.84	0.584	0.783	0.887	0.84	0.793	0.664	0.774	0.497	0.289	0.399	1	1.09	0.98	0.972
NCI-H2228	0.511	–	0.478	0.481	0.509	0.595	0.673	0.789	0.529	0.696	0.486	0.569	0.502	0.648	0.611	0.672	0.593	0.753
NCI-H1650	0.554	0.506	0.452	0.59	0.482	0.69	0.544	0.84	0.606	0.579	0.589	0.422	0.71	0.535	–	–	–	–
LCLC-103H	0.459	0.409	0.485	0.393	0.485	0.493	0.55	0.527	0.522	0.776	0.878	0.777	0.782	0.754	0.861	0.864	1.05	0.928
HCC-15	0.654	0.595	0.689	0.403	0.757	0.801	0.708	0.698	0.583	0.911	0.873	0.826	0.897	0.796	0.924	0.831	0.854	0.851
UMC-11	0.306	0.441	0.495	0.541	0.5	0.571	0.578	0.491	0.488	0.39	0.376	0.454	0.345	–	0.982	0.992	1.05	1.09
NCI-H2087	0.407	0.504	1.08	–	0.542	0.624	0.712	0.589	0.485	0.97	0.745	0.385	–	0.538	1.07	1.02	1	1.1
NCI-H3122	0.895	0.921	0.955	0.671	1.32	1.23	1.1	1.3	1.1	1.05	0.944	0.874	0.858	1.06	0.66	0.808	0.837	0.747
NCI-H1703	–	–	–	–	–	–	–	–	–	–	–	–	–	–	0.364	0.414	0.356	0.344
NCI-H2342	0.462	0.566	0.494	0.532	0.505	0.687	0.649	0.608	0.585	0.495	0.783	0.754	0.76	0.731	–	–	–	–
NCI-H1792	–	0.712	0.677	–	0.808	–	0.823	0.817	0.775	–	–	–	–	–	0.717	0.77	0.722	0.677
SW 900	–	–	0.532	0.442	0.62	0.547	0.643	0.523	0.764	0.343	0.43	0.488	0.4	0.527	–	–	–	–
NCI-H1299	–	–	–	–	–	–	–	–	–	–	–	–	–	–	1.06	1	1.02	1.01
EBC-1	–	–	–	–	–	–	–	–	–	–	–	–	–	–	0.769	0.808	0.736	0.809
IA-LM	–	–	–	–	–	–	–	–	–	1.04	0.864	0.918	–	0.822	0.955	0.613	0.619	0.832
NCI-H1563	0.753	0.71	0.694	0.825	0.766	0.838	0.757	0.697	0.642	–	–	–	–	–	0.98	0.935	0.922	1.02
A549	–	–	–	–	–	–	–	–	–	–	–	–	–	–	0.718	0.727	0.694	0.707
